{"source": "paper PMC11015057", "about": "(ACS Infectious Diseases, 2024)", "key": {"[1]": {"tested_on": "E. coli TOP10-3 (GyrA^P35L, ParC^D79N)", "test": "MIC, antibacterial susceptibility (CLSI)", "format": "cell-based", "conditions": "Escherichia coli"}, "[2]": {"tested_on": "uropathogens, including Escherichia coli", "conditions": "cited from earlier work"}, "[3]": {"tested_on": "E. coli TOP10 (GyrA^WT, ParC^WT)", "test": "microbe, parasite or virus in culture", "format": "cell-based", "conditions": "Escherichia coli"}}, "note": "Where two headings read alike, the source gives them in different places.", "data": [{"smiles": "O=c1ccc2ncc(=O)n3c2n1C[C@H]3CN1CCC(NCc2cc3c(cn2)OCCC3)CC1", "note": "[gepotidacin]", "values": [{"measurement": "MIC", "setting": "[1]", "value": 16, "unit": "µg/mL"}, {"measurement": "clinical efficacy versus nitrofurantoin", "setting": "[2]; EAGLE-3 phase III trial", "value": "demonstrated statistically significant superiority versus nitrofurantoin"}, {"measurement": "clinical efficacy versus nitrofurantoin", "setting": "[2]; phase III trials, patients with confirmed uncomplicated urinary tract infection and uropathogen susceptible to nitrofurantoin", "value": "demonstrated noninferiority to nitrofurantoin"}, {"measurement": "MIC", "setting": "[3]", "value": 0.125, "unit": "µg/mL"}]}]}
